Assays:
PI3Kβ = molecular target: T1, PI3Kβ (Homo sapiens, UniProt P42338); experiment: HTRF in vitro profiling assay for PI3K inhibition (beta isoform); type: biochemical; details: 200 pM enzyme, 100 uM ATP, 10 uM PIP2, 150 mM NaCl, corrected pIC50, single run or average of two or more runs, read-out: PI3K b pIC50 (converted)
T1 construct: made in house
Description: Compounds of the present invention were tested according to the following assays and found as inhibitors of PI3 kinases, particularly PI3Kβ. […] The IC50 value can be converted and presented as pIC50 value.
HTRF In Vitro Profiling Assays for PI3K Inhibition
The PI3-Kinase profiling assays were developed to measure the compound-dependent inhibition of the alpha, beta, delta, and gamma isoforms of PI3K in an in vitro catalytic assay. This assay was developed and optimized from a kit produced by Upstate (Millipore catalog #33-017). Briefly, this procedure utilizes a pre-formed HTRF (Homogeneous Time-Resolved Fluorescence energy transfer) complex between four binding partners: 1) biotinylated PIP3, 2) GST tagged pleckstrin homology (PH) domain, 3) Europium labeled anti-GST monoclonal antibody, and 4) Streptavidin-Allophycocyanin (APC). The native PIP3 produced by PI 3-Kinase activity displaces biotin-PIP3 from the PH domain, resulting in the dissociation of the HTRF complex and a decrease in the fluorescence signal. The format of this assay is the same for all 4 isoforms of PI3K; the differences lie in the concentration of enzyme used to achieve the most robust signal. The alpha and delta assays are run at 400 pM enzyme; the beta assay is at 200 pM enzyme and the gamma assay is run at 1 nM enzyme. In addition, the alpha, beta and delta assays are run with 150 mM NaCl while the gamma assay is run in the absence of NaCl. The ATP concentration is 100 uM in the alpha, beta, and delta assays and 15 uM ATP in the gamma assay. All reactions are run at 10 uM PIP2
Compounds were serially diluted (3-fold in 100% DMSO) across a 384-well polypropylene mother plate from column 1 to column 12 and column 13 to column 24, to yield 11 concentrations for each test compound. Columns 6 and 18 contain only DMSO. Once titrations were made, 0.05 μL was transferred to a 384-well low-volume assay plate (Greiner 784076). This assay plate contained three pharmacological controls (known PI3K inhibitors) and 3 assay controls: (1) Enzyme without inhibitor; (2) Buffer minus enzyme, and (3) Buffer minus enzyme plus native PIP3. DMSO was stamped into all wells of columns 6 and 18. PIP3 was added at 40 μM in 1× Reaction buffer (1 μL of 200 μM PIP3) to alternating rows of column 18 (wells 18 B, D, F, H, J, L, N, P). The no-enzyme control reactions were run in wells 18 A, C, E, G, I, K, M, O (0.1 μL of 100% DMSO).
The PI3-Kinase profiling assay was optimized using the HTRF kit provided by Upstate (Millipore). The assay kit contained seven reagents: 1) 4× Reaction Buffer; 2) native PIP2 (substrate); 3) Stop A (EDTA); 4) Stop B (Biotin-PIP3); 5) Detection Mix A (Streptavidin-APC); 6) Detection Mix B (Eu-labeled Anti-GST plus GST-tagged PH-domain); 7) Detection Mix C (KF). In addition, the following items were obtained or purchased: PI3Kinase (prepared by GSK BR&AD), dithiothreitol (Sigma, D-5545), Adenosine-5′-triphosphate (ATP, Teknova cat. # A0220), native PIP3 (1,2-dioctanoyl-sn-glycero-3-[phosphoinositil-3,4,5-triphosphate]tetraammonium salt (Avanti polar lipids, 850186P), DMSO (Sigma, 472301).
PI3Kinase Reaction Buffer was prepared by diluting the stock 1:4 with de-ionized water. Freshly prepared DTT was added at a final concentration of 5 mM on the day of use. Enzyme addition and compound pre-incubation were initiated by the addition of 2.5 μL of PI3K (at twice its final concentration) in 1× reaction buffer to all wells using a Multidrop Combi. Plates were incubated at room temperature for 15 minutes. Reactions were initiated by addition of 2.5 μL of 2× substrate solution (PIP2 and ATP in 1× reaction buffer) using a Multidrop Combi. Plates were incubated at room temperature for one hour. Reactions were quenched by the addition of 2.5 μL of stop solution (Stop A and Stop B pre-mixed at a ratio of 5:1, respectively) to all wells using the Multidrop Combi. […]

[1] = test system: phosphorylation of AKT in MDA-MB-468 tumor cells; experiment: Inhibition of phosphorylation of AKT (Ser473, MSD) in PTEN deficient tumor cell line MDA-MB-468; type: cell-based; details: Homo sapiens, 0.5 h; MDA-MB-468 cells, 30 minutes compound treatment, Ser473-pAKT normalized to total AKT
Description: Cellular Assays—Inhibition of Phosphorylation of AKT in PTEN Deficient Tumor Cell Line MDA-MB-468
Compounds were evaluated for their ability to inhibit downstream phosphorylation of AKT in MDA-MB-468 tumor cells. Breast cancer cells were plated, incubated for approximately 16-20 hours and then treated with compound for 30 minutes. Final DMSO concentration on all cells was 0.15%. The cells were washed with Tris buffer and lysed in MesoScale Discovery (MSD) lysis buffer containing protease and phosphatase inhibitors (included in MSD kit). MSD Ser473-AKT duplex plates (Cat # MS6000) were used according to the manufacturer's instructions and plates were read on a SECTOR™ Imager 6000 using MSD Workbench software. For analysis of the Ser473-pAKT concentration response curves, the data was normalized using the corresponding total AKT value (sum of pAKT and AKT signal) and plotted as the percent of the DMSO-treated control values. The data was fit in Graphpad Prism version 4 for Windows (Graphpad Software, San Diego, Calif.).
The compounds listed in Table 2 were tested generally according to the assays described herein. Table 2 lists the IC50 values for either an experimental run or an average of two or more experimental runs with the examples shown.

T1 sequence (P42338 whole entry, canonical isoform): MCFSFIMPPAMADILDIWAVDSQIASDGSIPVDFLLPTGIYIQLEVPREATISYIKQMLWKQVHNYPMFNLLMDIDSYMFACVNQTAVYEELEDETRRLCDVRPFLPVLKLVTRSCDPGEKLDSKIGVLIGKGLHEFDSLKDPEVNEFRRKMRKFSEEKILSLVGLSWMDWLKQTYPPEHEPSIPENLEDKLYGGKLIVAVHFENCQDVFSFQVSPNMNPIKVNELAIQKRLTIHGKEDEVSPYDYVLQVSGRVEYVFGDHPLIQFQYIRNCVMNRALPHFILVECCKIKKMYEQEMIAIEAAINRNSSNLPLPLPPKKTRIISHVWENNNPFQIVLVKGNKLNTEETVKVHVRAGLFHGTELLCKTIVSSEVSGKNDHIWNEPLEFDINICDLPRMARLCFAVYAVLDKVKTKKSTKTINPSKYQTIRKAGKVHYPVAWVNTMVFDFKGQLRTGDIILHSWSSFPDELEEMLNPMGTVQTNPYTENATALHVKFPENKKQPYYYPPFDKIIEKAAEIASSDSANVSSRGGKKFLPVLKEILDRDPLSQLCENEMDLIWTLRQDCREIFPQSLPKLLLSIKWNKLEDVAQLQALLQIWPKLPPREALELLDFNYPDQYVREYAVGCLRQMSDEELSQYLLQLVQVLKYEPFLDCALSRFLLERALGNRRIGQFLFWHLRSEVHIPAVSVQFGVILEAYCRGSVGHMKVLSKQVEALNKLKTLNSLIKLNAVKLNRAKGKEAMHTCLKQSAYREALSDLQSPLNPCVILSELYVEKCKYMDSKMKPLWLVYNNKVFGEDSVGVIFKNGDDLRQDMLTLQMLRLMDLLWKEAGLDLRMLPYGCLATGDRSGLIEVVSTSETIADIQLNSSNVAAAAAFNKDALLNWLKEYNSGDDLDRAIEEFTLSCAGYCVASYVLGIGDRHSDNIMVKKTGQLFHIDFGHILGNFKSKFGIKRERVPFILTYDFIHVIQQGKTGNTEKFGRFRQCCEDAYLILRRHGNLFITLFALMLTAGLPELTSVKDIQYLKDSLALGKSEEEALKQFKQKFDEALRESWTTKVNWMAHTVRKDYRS
T1 sequence (P27986 whole entry partner, canonical isoform): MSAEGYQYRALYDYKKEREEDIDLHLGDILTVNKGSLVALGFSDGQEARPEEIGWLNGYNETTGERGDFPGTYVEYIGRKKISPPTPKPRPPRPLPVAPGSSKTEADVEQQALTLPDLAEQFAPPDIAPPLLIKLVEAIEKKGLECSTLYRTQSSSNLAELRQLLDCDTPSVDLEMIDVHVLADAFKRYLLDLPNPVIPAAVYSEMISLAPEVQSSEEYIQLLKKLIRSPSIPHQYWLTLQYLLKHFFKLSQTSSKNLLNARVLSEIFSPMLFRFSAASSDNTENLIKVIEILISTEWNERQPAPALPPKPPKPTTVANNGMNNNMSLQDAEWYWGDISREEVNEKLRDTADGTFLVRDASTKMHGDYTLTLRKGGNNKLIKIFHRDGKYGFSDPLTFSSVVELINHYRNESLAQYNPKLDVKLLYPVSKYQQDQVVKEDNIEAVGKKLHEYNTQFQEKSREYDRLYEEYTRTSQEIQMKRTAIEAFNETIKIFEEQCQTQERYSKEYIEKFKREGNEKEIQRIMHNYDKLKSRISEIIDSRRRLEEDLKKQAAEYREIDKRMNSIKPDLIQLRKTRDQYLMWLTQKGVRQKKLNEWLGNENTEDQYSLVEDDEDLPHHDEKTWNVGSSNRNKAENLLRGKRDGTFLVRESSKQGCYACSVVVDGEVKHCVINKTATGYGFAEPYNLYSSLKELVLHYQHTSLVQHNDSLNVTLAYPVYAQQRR

Compound	IC50 (PI3Kβ) [nM]	IC50 [1] [nM]
Cc1c(Cn2c(C)nc3c(B(O)O)cc(N4CCOCC4)cc32)cccc1C(F)(F)F [Example 4, (2-methyl-1-(2-methyl-3-(trifluoromethyl)benzyl)-6-morpholino-1H-benzo[d]imidazol-4-yl)boronic acid]	0.398	18.7
Cc1c(Cl)cccc1Cn1c(C)nc2c(B(O)O)cc(N3CCOCC3)cc21 [Example 5, (1-(3-chloro-2-methylbenzyl)-2-methyl-6-morpholino-1H-benzo[d]imidazol-4-yl)boronic acid]	0.2	8.97
Cc1nc2c(B(O)O)cc(N3CCOCC3)cc2n1Cc1cccc2ccccc12 [Example 6, (2-methyl-6-morpholino-1-(naphthalen-1-ylmethyl)-1H-benzo[d]imidazol-4-yl)boronic acid]	0.501	78.2
Cc1cccc(Cn2c(C)nc3c(B(O)O)cc(N4CCOCC4)cc32)c1C [Example 7, (1-(2,3-dimethylbenzyl)-2-methyl-6-morpholino-1H-benzo[d]imidazol-4-yl)boronic acid]	0.501	45.6
Cc1nc2c(B(O)O)cc(N3CCOCC3)cc2n1Cc1cccc(Cl)c1Cl [Example 8, (1-(2,3-dichlorobenzyl)-2-methyl-6-morpholino-1H-benzo[d]imidazol-4-yl)boronic acid]	0.501	61
Cc1nc2c(B(O)O)cc(N3CCOCC3)cc2n1Cc1cccc2ccsc12 [Example 9]	1.26	65.8
Cc1cccc(Cn2c(C)nc3c(B(O)O)cc(N4CCOCC4)cc32)c1 [Example 10, (2-methyl-1-(3-methylbenzyl)-6-morpholino-1H-benzo[d]imidazol-4-yl)boronic acid]	63.1	672
Cc1ccccc1Cn1c(C)nc2c(B(O)O)cc(N3CCOCC3)cc21 [Example 11, (2-methyl-1-(2-methylbenzyl)-6-morpholino-1H-benzo[d]imidazol-4-yl)boronic acid]	10	227
Cc1nc2c(B(O)O)cc(N3CCOCC3)cc2n1Cc1ccccc1Cl [Example 12, (1-(2-chlorobenzyl)-2-methyl-6-morpholino-1H-benzo[d]imidazol-4-yl)boronic acid]	39.8	1490
Cc1nc2c(B(O)O)cc(N3CCOCC3)cc2n1Cc1cccc(Cl)c1 [Example 13, (1-(3-chlorobenzyl)-2-methyl-6-morpholino-1H-benzo[d]imidazol-4-yl)boronic acid]	63.1	105
Cc1c(Cn2cnc3c(B(O)O)cc(N4CCOCC4)cc32)cccc1C(F)(F)F [Example 14, (1-(2-methyl-3-(trifluoromethyl)benzyl)-6-morpholino-1H-benzo[d]imidazol-4-yl)boronic acid]	1.58	24.4
Cc1c(Cl)cccc1Cn1cnc2c(B(O)O)cc(N3CCOCC3)cc21 [Example 15, (1-(3-chloro-2-methylbenzyl)-6-morpholino-1H-benzo[d]imidazol-4-yl)boronic acid]	1.26	7.95
Cc1c(Cn2c(CF)nc3c(B(O)O)cc(N4CCOCC4)cc32)cccc1C(F)(F)F [Example 16, (2-(fluoromethyl)-1-(2-methyl-3-(trifluoromethyl)benzyl)-6-morpholino-1H-benzo[d]imidazol-4-yl)boronic acid]	0.0631	19.1
Cc1c(Cl)cccc1Cn1c(CF)nc2c(B(O)O)cc(N3CCOCC3)cc21 [Example 17, (1-(3-chloro-2-methylbenzyl)-2-(fluoromethyl)-6-morpholino-1H-benzo[d]imidazol-4-yl)boronic acid]	0.0631	14.5
Cc1c(Cn2c(CO)nc3c(B(O)O)cc(N4CCOCC4)cc32)cccc1C(F)(F)F [Example 18, (2-(hydroxymethyl)-1-(2-methyl-3-(trifluoromethyl)benzyl)-6-morpholino-1H-benzo[d]imidazol-4-yl)boronic acid]	0.2	6.35
Cc1c(Cl)cccc1Cn1c(C(F)F)nc2c(B(O)O)cc(N3CCOCC3)cc21 [Example 19, (1-(3-chloro-2-methylbenzyl)-2-(difluoromethyl)-6-morpholino-1H-benzo[d]imidazol-4-yl)boronic acid]	0.0794	70.9
Cc1c(Cn2c(C(F)F)nc3c(B(O)O)cc(N4CCOCC4)cc32)cccc1C(F)(F)F [Example 20, (2-(difluoromethyl)-1-(2-methyl-3-(trifluoromethyl)benzyl)-6-morpholino-1H-benzo[d]imidazol-4-yl)boronic acid]	0.126	40.1
Cc1c(Cl)cccc1Cn1c(C(F)(F)F)nc2c(B(O)O)cc(N3CCOCC3)cc21 [Example 21, (1-(3-chloro-2-methylbenzyl)-6-morpholino-2-(trifluoromethyl)-1H-benzo[d]imidazol-4-yl)boronic acid]	0.0794	92.9
Cc1c(Cn2c(C(C)C)nc3c(B(O)O)cc(N4CCOCC4)cc32)cccc1C(F)(F)F [Example 22, (2-isopropyl-1-(2-methyl-3-(trifluoromethyl)benzyl)-6-morpholino-1H-benzo[d]imidazol-4-yl)boronic acid]	3.16	74.6
Cc1c(Cn2c(C3CC3)nc3c(B(O)O)cc(N4CCOCC4)cc32)cccc1C(F)(F)F [Example 23, (2-cyclopropyl-1-(2-methyl-3-(trifluoromethyl)benzyl)-6-morpholino-1H-benzo[d]imidazol-4-yl)boronic acid]	1.26	56.2

— patent US8778937B2, “Benzimidazole boronic acid derivatives as PI3 kinase inhibitors” (GlaxoSmithKline LLC, priority 2011, dated 2014)
